US20020162128A1, “Non-human animal deficient in function of pituitary adenylate cyclase-activating polypeptide gene” (priority 2000, published 2002)

Tests used:
Type in all cases: in vivo, mouse
wild-type mice = assay: Effect of haloperidol on locomotor activity in the open field; conditions: haloperidol 0.2 mg/kg intraperitoneally, 20 min before 90 min test, versus vehicle
Procedure: (§1) Motor activity was quantified using an automated video-tracking system, the video image motion analyzer AXIS-90 (Neuroscience, Inc., Tokyo, Japan). A computer program was used to overlay grid lines defining 25 separate regions within a circular open field (60 cm in diameter, 30 cm deep, illuminated with white light, 100 lux). Paths taken by each mouse were stored permanently as x-y coordinate sequences, and parameters indicative of locomotor activity were assessed. Vertical activity (rearing and jumping) were also scored. In the haloperidol study, the drug was injected intraperitoneally 20 min prior to monitoring locomotor activity, which was measured for 90 min by another activity-monitoring system, Supermex (multi-channel system; Muromachi Kikai Co., Ltd., Tokyo, Japan). Subsequently, the same mice were tested for catalepsy in the bar test as previously described in Boulay, D., Depoortere, R., Oblin, A., Sanger, D. J., Schoemaker, H. & Perrault, G. (2000) Eur. J. Pharmacol. 391, 63-73.
(§2) Effects of haloperidol on locomotor activity. (A) PACAP+/+and PACAP−/− mice (n =6-7) were injected intraperitoneally with 0.2 and 2 mg/kg haloperidol or vehicle (0.5% carboxymethyl cellulose sodium) and 20 min later placed in the open field for automated measurement of locomotor parameters over a 90 min test period. (B) Subsequently, each mouse was tested for catalepsy in the bar test. […]

PACAP−/− mice [1] = assay: Effect of haloperidol on locomotor hyperactivity in the open field; conditions: haloperidol 0.2 mg/kg intraperitoneally, 20 min before 90 min test, versus vehicle
Procedure: as §1, §2

PACAP−/− mice [2] = assay: Catalepsy in the bar test after haloperidol; conditions: haloperidol 0.2 and 2 mg/kg intraperitoneally; PACAP−/− mice compared with wild-type mice
Procedure: as §1, §2

## O=C(CCCN1CCC(O)(c2ccc(Cl)cc2)CC1)c1ccc(F)cc1 [Haloperidol, haloperidol]
wild-type mice
  impairment of locomotor activity (total activity): 43±21 % reduction
PACAP−/− mice [1]
  reduction of hyperactivity (total locomotor activity): 65±10 % reduction
PACAP−/− mice [2]
  cataleptogenic effect (bar test): quite similar to that in wild-type mice
